Assay results taken from patent US9511073B2, “Aromatic amides and uses thereof” (TAXIS Pharmaceuticals, Inc., priority 2011, dated 2016).
In brackets after ≈: the same amount, converted by molar mass. Read-outs that look alike come from different tables or passages of the source.

What was measured:
[1] = Pharmacokinetic assay: plasma concentration by LC/MS/MS after single intravenous or peroral dose of 3 mg/kg; assay type: in vivo; details: 3 mg/kg IV dosing in mice
Description: The pharmacokinetic profiles of selected comparator compounds A-N in Table 6 and compounds of the invention were determined by measuring the compound concentration in plasma by LC/MS/MS following a single intravenous or peroral administration of the compounds at a dose of 3 mg/kg. The concentrations described are the mean plasma concentrations at each time point from three animals. Intravenous dose formulation was administered as a single bolus dose through the tail vein. Oral dose formulation was administered to animals by an oral gavage needle. In both cases the dose volume was 5.0 mL/kg. Blood was collected from anesthetized mice through a capillary guided into the retro-orbital plexus. The collected blood was centrifuged to obtain plasma and the compounds extracted into methanol prior to determining the compound concentration by LC/MS/MS. The results are shown graphically in FIG. 1 and for the AUC and CL parameters in Table 6.

[2] = system: Staphylococcus aureus (Isolate ID ATCC 29213); assay: Bacterial assay: MIC by broth microdilution or agar dilution (CLSI), S. aureus ATCC 29213; assay type: cell-based; details: Staphylococcus aureus, ATCC29213, read-out: S. aureus MIC (μg/mL) Activity Range, S. aureus (ATCC29213)
Summary of the method: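 MICs by CLSI broth microdilution or agar dilution against S. aureus ATCC 29213 and its FtsZ-G196A mutant. Values reported as ranges: A ≤0.25 μg/mL, B >0.25–1.0, C >1.0–16, D >16 μg/mL.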

With `CC(Oc1ccc(F)c(C(N)=O)c1F)c1nc(-c2ccc(OC(F)(F)F)cc2)c(Br)o1` (stereo not shown) [Compound 16, 3-(1-(5-bromo-4-(4-(trifluoromethoxy)phenyl)oxazol-2-yl)ethoxy)-2,6-difluorobenzamide] the “AUC” value [1] was 1400 ng·h/mL, the “CL” value [1] was 36 mL/min/kg and the MIC [2] was 0.25 to 1 µg/mL (≈ 0.493 to 1.97 µM).
For `CC(Oc1ccc(F)c(C(N)=O)c1F)c1nc(-c2ccc(C(F)(F)F)cc2)c(Br)o1` (stereo not shown) [Compound 27, 3-(1-(5-bromo-4-(4-(trifluoromethyl)phenyl)oxazol-2-yl)ethoxy)-2,6-difluorobenzamide], the “AUC” value [1] was 2200 ng·h/mL, the “CL” value [1] was 22 mL/min/kg and the MIC [2] was less than 0.25 µg/mL.
`COc1cnc(-c2csc(COc3ccc(F)c(C(N)=O)c3F)n2)cn1` [G, 2,6-difluoro-3-((4-(5-methoxypyrazin-2-yl)thiazol-2-yl)methoxy)benzamide] gave a clearance ([1]; mouse, plasma) of 82 mL/min/kg and an AUC ([1]; mouse, plasma, read-out: AUC) of 600 ng·h/mL.
With `CCc1oc(COc2ccc(F)c(C(N)=O)c2F)nc1-c1ccc(OC)cc1` [I, 3-((5-ethyl-4-(4-methoxyphenyl)oxazol-2-yl)methoxy)-2,6-difluorobenzamide] the “AUC” value [1] was 200 ng·h/mL and the “CL” value [1] was 319 mL/min/kg.
With `NC(=O)c1c(F)ccc(OCc2nc(-c3ccc(Cl)cc3)no2)c1F` [Compound A, 3-((3-(4-chlorophenyl)-1,2,4-oxadiazol-5-yl)methoxy)-2,6-difluorobenzamide] the clearance ([1]; mouse, plasma) was 52 mL/min/kg and the AUC ([1]; mouse, plasma, read-out: AUC) was 900 ng·h/mL.
For `CCCc1oc(COc2ccc(F)c(C(N)=O)c2F)nc1-c1cccc(O)c1` [Compound M, 2,6-difluoro-3-((4-(3-hydroxyphenyl)-5-propyloxazol-2-yl)methoxy)benzamide], the clearance ([1]; mouse, plasma) was 369 mL/min/kg and the AUC ([1]; mouse, plasma, read-out: AUC) was 100 ng·h/mL.
With `CCOc1cnc2sc(COc3ccc(F)c(C(N)=O)c3F)nc2c1` [E] the “AUC” value [1] was 200 ng·h/mL and the “CL” value [1] was 203 mL/min/kg.
For `NC(=O)c1c(F)ccc(OCc2nc(-c3cnc(Cl)nc3)cs2)c1F` [H, 3-((4-(2-chloropyrimidin-5-yl)thiazol-2-yl)methoxy)-2,6-difluorobenzamide], the clearance ([1]; mouse, plasma) was 173 mL/min/kg and the AUC ([1]; mouse, plasma, read-out: AUC) was 300 ng·h/mL.
In the case of `NC(=O)c1c(F)ccc(OCc2nc3cc(-c4ccccc4)cnc3s2)c1F` [B], the “AUC” value [1] is reported as 500 ng·h/mL and the “CL” value [1] is reported as 91 mL/min/kg.
Work on `C=CCc1oc(COc2ccc(F)c(C(N)=O)c2F)nc1-c1cccc(O)c1` [Compound N, 3-((5-allyl-4-(3-hydroxyphenyl)oxazol-2-yl)methoxy)-2,6-difluorobenzamide] yielded a clearance ([1]; mouse, plasma) of 270 mL/min/kg and an AUC ([1]; mouse, plasma, read-out: AUC) of 200 ng·h/mL.
`COc1ccc(-c2nc(COc3ccc(F)c(C(N)=O)c3F)sc2-c2ccc(N(C)C)nc2)cc1` [D, 3-((5-(6-(dimethylamino)pyridin-3-yl)-4-(4-methoxyphenyl)thiazol-2-yl)methoxy)-2,6-difluorobenzamide] gave a clearance ([1]; mouse, plasma) of 55 mL/min/kg and an AUC ([1]; mouse, plasma, read-out: AUC) of 900 ng·h/mL.
In the case of `CCCc1oc(COc2ccc(F)c(C(N)=O)c2F)nc1-c1ccc(Cl)cc1` [K], the “AUC” value [1] is reported as 400 ng·h/mL and the “CL” value [1] is reported as 137 mL/min/kg.
With `Cc1noc(CCc2csc(COc3ccc(F)c(C(N)=O)c3F)n2)n1` [L, 2,6-difluoro-3-((4-(2-(3-methyl-1,2,4-oxadiazol-5-yl)ethyl)thiazol-2-yl)methoxy)benzamide] the clearance ([1]; mouse, plasma) was 59 mL/min/kg and the AUC ([1]; mouse, plasma, read-out: AUC) was 800 ng·h/mL.
With `COc1ncc(-c2csc(COc3ccc(F)c(C(N)=O)c3F)n2)s1` [J, 2,6-difluoro-3-((2′-methoxy-4,5′-bithiazol-2-yl)methoxy)benzamide] the clearance ([1]; mouse, plasma) was 180 mL/min/kg and the AUC ([1]; mouse, plasma, read-out: AUC) was 300 ng·h/mL.
Molecule `NC(=O)c1c(F)ccc(OCc2nc(-c3ccc(Cl)nc3)cs2)c1F` [Compound F, 3-((4-(6-chloropyridin-3-yl)thiazol-2-yl)methoxy)-2,6-difluorobenzamide] has a clearance ([1]; mouse, plasma) of 139 mL/min/kg and an AUC ([1]; mouse, plasma, read-out: AUC) of 400 ng·h/mL.
With `CC(Oc1ccc(F)c(C(N)=O)c1F)c1nc(-c2ccc(OC(F)(F)F)cc2)c(Cl)o1` (stereo not shown) [Compound 21, 3-(1-(5-chloro-4-(4-(trifluoromethoxy)phenyl)oxazol-2-yl)ethoxy)-2,6-difluorobenzamide] the “AUC” value [1] was 1600 ng·h/mL, the “CL” value [1] was 31 mL/min/kg and the MIC [2] was less than 0.25 µg/mL.
In the case of `NC(=O)c1c(F)ccc(O[C@H](COC(=O)CCC(=O)O)c2nc(-c3ccc(C(F)(F)F)cc3)c(Br)o2)c1F` [Compound 181, (R)-4-(2-(5-bromo-4-(4-(trifluoromethyl)phenyl)oxazol-2-yl)-2-(3-carbamoyl-2,4-difluorophenoxy)ethoxy)-4-oxobutanoic acid], the clearance ([1]; mouse, plasma) is reported as 16 mL/min/kg, the AUC ([1]; mouse, plasma, read-out: AUC) is reported as 3000 ng·h/mL and the MIC [2] is reported as 1 to 16 µg/mL (≈ 1.65 to 26.3 µM).
With `Cc1nnc(CCC(Oc2ccc(F)c(C(N)=O)c2F)c2nc(-c3ccc(C(F)(F)F)cc3)c(Br)o2)o1` (stereo not shown) [Compound 97, 3-(1-(5-bromo-4-(4-(trifluoromethyl)phenyl)oxazol-2-yl)-3-(5-methyl-1,3,4-oxadiazol-2-yl)propoxy)-2,6-difluorobenzamide] the MIC [2] was 1 to 16 µg/mL (≈ 1.7 to 27.2 µM).
With `CC(Oc1ccc(F)c(C(N)=O)c1F)c1nc(-c2ccc(C(F)(F)F)cn2)c(Br)o1` (stereo not shown) [Compound 54] the MIC [2] was 0.25 to 1 µg/mL (≈ 0.508 to 2.03 µM).
`Cc1ccc(-c2csc(COc3ccc(F)c(C(N)=O)c3F)n2)cn1` [Compound C, 2,6-difluoro-3-((4-(6-methylpyridin-3-yl)thiazol-2-yl)methoxy)benzamide] gave a clearance ([1]; mouse, plasma) of 130 mL/min/kg and an AUC ([1]; mouse, plasma, read-out: AUC) of 400 ng·h/mL.
Work on `COc1ncc(-c2nc([C@@H](CO)Oc3ccc(F)c(C(N)=O)c3F)oc2Br)cn1` [Compound 257B, (R)-3-(1-(5-bromo-4-(2-methoxypyrimidin-5-yl)oxazol-2-yl)-2-hydroxyethoxy)-2,6-difluorobenzamide] yielded an MIC [2] greater than 16 µg/mL.
With `NCC(Oc1ccc(F)c(C(N)=O)c1F)c1nc(-c2ccc(C(F)(F)F)cc2)c(Br)o1` (stereo not shown) [Compound 290, 3-(2-amino-1-(5-bromo-4-(4-(trifluoromethyl)phenyl)oxazol-2-yl)ethoxy)-2,6-difluorobenzamide] the MIC [2] was 1 to 16 µg/mL (≈ 1.98 to 31.6 µM).
In the case of `COC(=O)c1ccc(-c2nc(C(CO)Oc3ccc(F)c(C(N)=O)c3F)oc2Br)cc1` (stereo not shown) [Compound 246, methyl 4-(5-bromo-2-(1-(3-carbamoyl-2,4-difluorophenoxy)-2-hydroxyethyl)oxazol-4-yl)benzoate], the MIC [2] is reported as 1 to 16 µg/mL (≈ 2.01 to 32.2 µM).
For `Cc1nc(-c2ccc(-c3nc(C(CO)Oc4ccc(F)c(C(N)=O)c4F)oc3Br)cc2)no1` (stereo not shown) [Compound 83, 3-(1-(5-bromo-4-(4-(5-methyl-1,2,4-oxadiazol-3-yl)phenyl)oxazol-2-yl)-2-hydroxyethoxy)-2,6-difluorobenzamide], the MIC [2] was 1 to 16 µg/mL (≈ 1.92 to 30.7 µM).
